Data from paper PMC8333425, “Discovery of a dual Ras and ARF6 inhibitor from a GPCR endocytosis screen” (Nature Communications, 2021).

Assays:
Assay in all cases: KINOMEscan kinase binding assay
[1] = biological target: T1, 384 kinases from the human genome (Homo sapiens, UniProt Q15746); conditions: kinase MYLK (Entrez MYLK)
T1 construct: purchased Eurofin/DiscoverX
How it was run: (§1)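 Competition binding (KINOMEscan) across 384 human kinases with compound at 10 µM. Ligand binding was expressed relative to DMSO (100%) as the average of duplicates from one experiment. S(10) selectivity score was derived.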

[2] = biological target: T2, 384 kinases from the human genome (Homo sapiens, UniProt P78368); conditions: kinase CSNK1G2 (Entrez CSNK1G2)
T2 construct: purchased Eurofin/DiscoverX
How it was run: as §1

[3] = biological target: T3, 384 kinases from the human genome (Homo sapiens, UniProt P37173); conditions: kinase TGFBR2 (Entrez TGFBR2)
T3 construct: purchased Eurofin/DiscoverX
How it was run: as §1

[4] = biological target: T4, 384 kinases from the human genome (Homo sapiens, UniProt P54753); conditions: kinase EPHB3 (Entrez EPHB3)
T4 construct: purchased Eurofin/DiscoverX
How it was run: as §1

[5] = biological target: T5, 384 kinases from the human genome (Homo sapiens, UniProt P57058); conditions: kinase HUNK (Entrez HUNK)
T5 construct: purchased Eurofin/DiscoverX
How it was run: as §1

[6] = biological target: T6, 384 kinases from the human genome (Homo sapiens, UniProt P54760); conditions: kinase EPHB4 (Entrez EPHB4)
T6 construct: purchased Eurofin/DiscoverX
How it was run: as §1

[7] = biological target: T7, 384 kinases from the human genome (Homo sapiens, UniProt P49674); conditions: kinase CSNK1E (Entrez CSNK1E)
T7 construct: purchased Eurofin/DiscoverX
How it was run: as §1

[8] = biological target: T8, 384 kinases from the human genome (Homo sapiens, UniProt P37023); conditions: kinase ACVRL1 (Entrez ACVRL1)
T8 construct: purchased Eurofin/DiscoverX
How it was run: as §1

[9] = biological target: T9, 384 kinases from the human genome (Homo sapiens, UniProt Q2M2I8)
T9 construct: purchased Eurofin/DiscoverX
How it was run: as §1

[10] = biological target: T10, 384 kinases from the human genome (Homo sapiens, UniProt Q6ZN16); conditions: kinase MAP3K15 (Entrez MAP3K15)
T10 construct: purchased Eurofin/DiscoverX
How it was run: as §1

[11] = biological target: T11, 384 kinases from the human genome (Homo sapiens, UniProt Q16512); conditions: kinase PKN1 (Entrez PKN1)
T11 construct: purchased Eurofin/DiscoverX
How it was run: as §1

[12] = biological target: T12, 384 kinases from the human genome (Homo sapiens, UniProt P08069); conditions: kinase IGF1R (Entrez IGF1R)
T12 construct: purchased Eurofin/DiscoverX
How it was run: as §1

[13] = biological target: T13, 384 kinases from the human genome (Homo sapiens, UniProt O14976); conditions: kinase GAK (Entrez GAK)
T13 construct: purchased Eurofin/DiscoverX
How it was run: as §1

[14] = biological target: T14, 384 kinases from the human genome (Homo sapiens, UniProt Q9BRS2); conditions: kinase RIOK1 (Entrez RIOK1)
T14 construct: purchased Eurofin/DiscoverX
How it was run: as §1

[15] = biological target: T15, 384 kinases from the human genome (Homo sapiens, UniProt O14757); conditions: kinase CHEK1 (Entrez CHEK1)
T15 construct: purchased Eurofin/DiscoverX
How it was run: as §1

[16] = biological target: T16, 384 kinases from the human genome (Homo sapiens, UniProt Q8N4C8); conditions: kinase MINK (Entrez MINK1)
T16 construct: purchased Eurofin/DiscoverX
How it was run: as §1

[17] = biological target: T17, 384 kinases from the human genome (Homo sapiens, UniProt P21127); conditions: kinase CDC2L1 (Entrez CDK11B)
T17 construct: purchased Eurofin/DiscoverX
How it was run: as §1

[18] = biological target: T18, 384 kinases from the human genome (Homo sapiens, UniProt Q96PN8); conditions: kinase TSSK3 (Entrez TSSK3)
T18 construct: purchased Eurofin/DiscoverX
How it was run: as §1

[19] = biological target: T19, 384 kinases from the human genome (Homo sapiens, UniProt Q15139); conditions: kinase PRKD1 (Entrez PRKD1)
T19 construct: purchased Eurofin/DiscoverX
How it was run: as §1

[20] = biological target: T20, 384 kinases from the human genome (Homo sapiens, UniProt P43405); conditions: kinase SYK (Entrez SYK)
T20 construct: purchased Eurofin/DiscoverX
How it was run: as §1

[21] = biological target: T21, 384 kinases from the human genome (Homo sapiens, UniProt Q9Y4K4); conditions: kinase MAP4K5 (Entrez MAP4K5)
T21 construct: purchased Eurofin/DiscoverX
How it was run: as §1

[22] = biological target: T22, 384 kinases from the human genome (Homo sapiens, UniProt O75747); conditions: kinase PIK3C2G (Entrez PIK3C2G)
T22 construct: purchased Eurofin/DiscoverX
How it was run: as §1

[23] = biological target: T23, 384 kinases from the human genome (Homo sapiens, UniProt Q92918); conditions: kinase HPK1 (Entrez MAP4K1)
T23 construct: purchased Eurofin/DiscoverX
How it was run: as §1

[24] = biological target: T24, 384 kinases from the human genome (Homo sapiens, UniProt P21709); conditions: kinase EPHA1 (Entrez EPHA1)
T24 construct: purchased Eurofin/DiscoverX
How it was run: as §1

[25] = biological target: T25, 384 kinases from the human genome (Homo sapiens, UniProt P07333)
T25 construct: purchased Eurofin/DiscoverX
How it was run: as §1

[26] = biological target: T26, 384 kinases from the human genome (Homo sapiens, UniProt Q9Y243); conditions: kinase AKT3 (Entrez AKT3)
T26 construct: purchased Eurofin/DiscoverX
How it was run: as §1

T25 sequence (P07333 20-972): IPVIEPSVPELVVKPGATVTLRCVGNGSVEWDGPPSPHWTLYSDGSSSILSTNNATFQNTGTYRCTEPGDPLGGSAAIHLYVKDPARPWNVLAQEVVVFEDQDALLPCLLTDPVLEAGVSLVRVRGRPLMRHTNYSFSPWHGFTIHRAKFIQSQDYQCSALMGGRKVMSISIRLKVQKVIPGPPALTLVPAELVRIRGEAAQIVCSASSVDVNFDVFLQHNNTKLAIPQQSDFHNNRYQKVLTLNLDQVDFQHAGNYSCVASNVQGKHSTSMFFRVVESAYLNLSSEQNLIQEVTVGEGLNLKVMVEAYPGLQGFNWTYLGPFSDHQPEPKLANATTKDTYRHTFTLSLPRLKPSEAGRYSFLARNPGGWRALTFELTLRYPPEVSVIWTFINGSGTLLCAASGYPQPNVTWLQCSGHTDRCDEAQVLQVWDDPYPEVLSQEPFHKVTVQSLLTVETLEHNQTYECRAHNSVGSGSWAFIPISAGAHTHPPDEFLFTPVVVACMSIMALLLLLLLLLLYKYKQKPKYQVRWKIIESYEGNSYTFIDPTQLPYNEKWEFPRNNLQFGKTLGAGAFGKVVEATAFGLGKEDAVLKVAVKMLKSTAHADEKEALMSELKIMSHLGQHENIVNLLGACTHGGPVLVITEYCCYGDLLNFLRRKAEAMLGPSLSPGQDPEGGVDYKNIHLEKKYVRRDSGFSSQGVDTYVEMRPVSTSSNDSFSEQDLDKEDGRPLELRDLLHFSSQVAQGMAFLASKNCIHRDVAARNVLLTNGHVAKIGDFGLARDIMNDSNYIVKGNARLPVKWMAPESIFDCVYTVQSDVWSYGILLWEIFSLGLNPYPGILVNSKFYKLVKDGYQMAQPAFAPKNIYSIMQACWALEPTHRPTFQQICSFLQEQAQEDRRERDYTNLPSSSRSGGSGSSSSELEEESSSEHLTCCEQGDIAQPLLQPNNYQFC
T9 sequence (Q2M2I8 whole entry): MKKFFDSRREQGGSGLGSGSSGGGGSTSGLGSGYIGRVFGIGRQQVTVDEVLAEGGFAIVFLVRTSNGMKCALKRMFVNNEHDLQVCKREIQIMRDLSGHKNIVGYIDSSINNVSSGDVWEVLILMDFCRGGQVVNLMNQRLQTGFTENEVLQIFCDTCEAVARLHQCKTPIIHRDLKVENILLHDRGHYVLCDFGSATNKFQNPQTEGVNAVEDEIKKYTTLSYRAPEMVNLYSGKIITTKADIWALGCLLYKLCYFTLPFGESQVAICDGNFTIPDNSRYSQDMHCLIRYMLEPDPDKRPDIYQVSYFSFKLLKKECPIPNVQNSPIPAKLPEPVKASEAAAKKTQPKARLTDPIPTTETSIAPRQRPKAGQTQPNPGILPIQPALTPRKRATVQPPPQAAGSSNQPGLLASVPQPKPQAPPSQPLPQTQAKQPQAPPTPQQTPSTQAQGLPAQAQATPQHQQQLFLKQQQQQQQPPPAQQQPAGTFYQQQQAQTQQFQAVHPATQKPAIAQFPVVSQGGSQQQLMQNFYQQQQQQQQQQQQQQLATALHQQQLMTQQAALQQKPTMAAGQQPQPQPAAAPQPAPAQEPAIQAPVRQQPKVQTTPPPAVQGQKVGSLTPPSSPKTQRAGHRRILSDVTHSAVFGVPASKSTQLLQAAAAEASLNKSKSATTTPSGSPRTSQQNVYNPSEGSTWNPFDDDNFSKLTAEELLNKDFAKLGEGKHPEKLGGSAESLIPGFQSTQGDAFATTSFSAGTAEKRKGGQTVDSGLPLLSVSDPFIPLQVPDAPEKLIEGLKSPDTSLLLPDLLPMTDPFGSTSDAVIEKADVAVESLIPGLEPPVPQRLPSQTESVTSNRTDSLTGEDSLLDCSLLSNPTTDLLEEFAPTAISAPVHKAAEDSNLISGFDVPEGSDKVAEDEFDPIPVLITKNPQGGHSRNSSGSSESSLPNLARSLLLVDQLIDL
T7 sequence (P49674 whole entry): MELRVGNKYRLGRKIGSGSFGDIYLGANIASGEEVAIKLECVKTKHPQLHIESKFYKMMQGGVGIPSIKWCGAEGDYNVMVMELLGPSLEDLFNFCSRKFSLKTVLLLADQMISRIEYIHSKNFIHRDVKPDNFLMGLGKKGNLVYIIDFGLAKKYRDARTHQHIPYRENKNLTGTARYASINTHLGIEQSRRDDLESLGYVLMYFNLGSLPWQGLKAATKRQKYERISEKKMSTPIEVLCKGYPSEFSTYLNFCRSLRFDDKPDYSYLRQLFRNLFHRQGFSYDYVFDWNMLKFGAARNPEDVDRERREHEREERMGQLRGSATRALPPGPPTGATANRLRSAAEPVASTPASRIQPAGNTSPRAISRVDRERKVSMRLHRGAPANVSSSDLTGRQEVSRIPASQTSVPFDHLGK
T11 sequence (Q16512 whole entry): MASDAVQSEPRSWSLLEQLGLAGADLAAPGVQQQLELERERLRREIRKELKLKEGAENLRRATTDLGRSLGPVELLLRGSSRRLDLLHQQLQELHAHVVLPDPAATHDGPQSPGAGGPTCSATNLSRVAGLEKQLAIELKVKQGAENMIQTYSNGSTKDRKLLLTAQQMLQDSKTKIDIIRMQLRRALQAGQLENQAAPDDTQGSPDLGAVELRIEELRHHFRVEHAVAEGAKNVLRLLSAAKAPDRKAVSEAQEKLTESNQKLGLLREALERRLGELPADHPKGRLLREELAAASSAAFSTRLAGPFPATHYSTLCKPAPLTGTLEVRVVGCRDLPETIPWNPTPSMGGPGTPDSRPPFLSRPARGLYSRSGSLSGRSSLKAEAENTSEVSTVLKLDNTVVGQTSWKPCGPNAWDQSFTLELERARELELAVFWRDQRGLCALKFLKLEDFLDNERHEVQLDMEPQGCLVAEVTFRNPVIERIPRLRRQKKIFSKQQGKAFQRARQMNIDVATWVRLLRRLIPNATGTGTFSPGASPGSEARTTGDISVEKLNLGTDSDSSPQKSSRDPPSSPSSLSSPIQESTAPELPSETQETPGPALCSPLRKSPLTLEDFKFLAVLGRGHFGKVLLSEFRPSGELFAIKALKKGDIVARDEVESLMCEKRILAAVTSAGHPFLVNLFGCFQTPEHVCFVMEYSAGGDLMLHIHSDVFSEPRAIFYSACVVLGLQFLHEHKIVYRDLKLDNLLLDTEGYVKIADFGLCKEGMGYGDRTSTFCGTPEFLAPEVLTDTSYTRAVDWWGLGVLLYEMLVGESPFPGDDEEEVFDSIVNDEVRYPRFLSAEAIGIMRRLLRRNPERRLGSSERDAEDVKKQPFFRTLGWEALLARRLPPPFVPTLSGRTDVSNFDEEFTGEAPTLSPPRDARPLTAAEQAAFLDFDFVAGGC
T21 sequence (Q9Y4K4 whole entry): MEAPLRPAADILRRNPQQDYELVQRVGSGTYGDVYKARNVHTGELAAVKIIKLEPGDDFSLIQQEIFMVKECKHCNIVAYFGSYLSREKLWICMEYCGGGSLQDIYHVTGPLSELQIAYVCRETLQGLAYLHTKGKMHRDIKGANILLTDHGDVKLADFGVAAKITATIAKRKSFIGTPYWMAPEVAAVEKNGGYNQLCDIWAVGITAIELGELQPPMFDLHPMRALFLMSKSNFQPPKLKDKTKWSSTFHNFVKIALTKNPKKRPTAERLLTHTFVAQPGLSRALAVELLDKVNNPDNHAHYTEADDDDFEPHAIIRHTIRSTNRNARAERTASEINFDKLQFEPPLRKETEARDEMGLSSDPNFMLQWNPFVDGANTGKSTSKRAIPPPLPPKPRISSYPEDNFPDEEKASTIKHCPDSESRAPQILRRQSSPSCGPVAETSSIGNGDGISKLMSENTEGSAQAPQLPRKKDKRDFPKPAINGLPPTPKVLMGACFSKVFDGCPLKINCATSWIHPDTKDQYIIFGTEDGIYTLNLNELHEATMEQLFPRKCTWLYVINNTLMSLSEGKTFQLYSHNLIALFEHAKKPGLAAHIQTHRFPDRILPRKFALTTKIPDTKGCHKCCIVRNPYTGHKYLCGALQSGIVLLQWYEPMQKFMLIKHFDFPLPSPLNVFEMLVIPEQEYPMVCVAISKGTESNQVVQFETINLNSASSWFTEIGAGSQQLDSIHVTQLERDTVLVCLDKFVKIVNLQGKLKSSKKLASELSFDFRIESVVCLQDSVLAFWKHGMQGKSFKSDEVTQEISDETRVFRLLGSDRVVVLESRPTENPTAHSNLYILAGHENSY
T24 sequence (P21709 26-976): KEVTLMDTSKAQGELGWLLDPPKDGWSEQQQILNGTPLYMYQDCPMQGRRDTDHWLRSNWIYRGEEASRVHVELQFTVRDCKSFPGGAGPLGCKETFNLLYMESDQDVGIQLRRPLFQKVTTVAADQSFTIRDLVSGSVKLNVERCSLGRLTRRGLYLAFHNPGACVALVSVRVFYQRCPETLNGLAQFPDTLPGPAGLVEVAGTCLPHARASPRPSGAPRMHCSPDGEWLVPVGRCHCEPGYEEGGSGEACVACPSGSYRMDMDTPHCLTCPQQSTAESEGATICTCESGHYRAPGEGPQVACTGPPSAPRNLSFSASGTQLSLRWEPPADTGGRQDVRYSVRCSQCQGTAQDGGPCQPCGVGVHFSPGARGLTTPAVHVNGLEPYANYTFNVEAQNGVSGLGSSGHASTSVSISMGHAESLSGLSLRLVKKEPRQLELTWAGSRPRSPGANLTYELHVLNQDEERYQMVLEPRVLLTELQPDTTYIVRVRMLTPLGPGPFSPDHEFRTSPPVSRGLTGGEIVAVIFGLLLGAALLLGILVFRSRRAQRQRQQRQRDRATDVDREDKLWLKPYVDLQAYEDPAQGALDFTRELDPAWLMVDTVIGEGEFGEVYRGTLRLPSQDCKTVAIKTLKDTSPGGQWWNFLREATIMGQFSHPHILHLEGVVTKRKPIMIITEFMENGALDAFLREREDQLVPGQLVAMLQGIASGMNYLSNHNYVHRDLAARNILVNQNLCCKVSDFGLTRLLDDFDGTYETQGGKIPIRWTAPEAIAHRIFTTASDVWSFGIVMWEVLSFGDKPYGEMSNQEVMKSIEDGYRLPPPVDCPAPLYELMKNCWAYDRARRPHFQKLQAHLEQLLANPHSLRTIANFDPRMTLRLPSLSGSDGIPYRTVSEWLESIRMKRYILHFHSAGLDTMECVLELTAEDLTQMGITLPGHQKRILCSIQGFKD

## CC(C)C(=O)N1CCN(c2ccc(NC(=O)c3cc4ccccc4o3)cc2Cl)CC1 [Compound 21]
[1]
  Percent Control: 93%
[2]
  Percent Control: 92%
[3]
  Percent Control: 99%
[4]
  Percent Control: 83%
[5]
  Percent Control: 69%
[6]
  Percent Control: 77%
[7]
  Percent Control: 100%
[8]
  Percent Control: 94%
[9]; 10 µM of 21
  binding to AAK1: failed to bind
[9]; kinase AAK1 (Entrez AAK1)
  Percent Control: 100%
[10]
  Percent Control: 100%
[11]
  Percent Control: 94%
[12]
  Percent Control: 76%
[13]
  Percent Control: 96%
[14]
  Percent Control: 100%
[15]
  Percent Control: 92%
[16]
  Percent Control: 63%
[17]
  Percent Control: 100%
[18]
  Percent Control: 100%
[19]
  Percent Control: 97%
[20]
  Percent Control: 98%
[21]
  Percent Control: 80%
[22]
  Percent Control: 100%
[23]
  Percent Control: 75%
[24]
  Percent Control: 89%
[25]; kinase CSF1R (Entrez CSF1R)
  Percent Control: 73%
[25]; kinase CSF1R-autoinhibited (Entrez CSF1R)
  Percent Control: 100%
[26]
  Percent Control: 100%
